“And” between values parts separate entries of the source, which are not always exact repeats. Equal entries are not always repeated.
Legend:
Ras-GTP = system: Ras-GTP
Text: The study was approved by the Institutional Animal Care Committee of Hadassah Medical Center and the Hebrew University. Sixty male C57bl mice weighing 25 to 35 g were used. CHI was induced under ether anesthesia, as previously described (Chen et al., 1996) and modified (Yatsiv et al., 2002). Briefly, after induction of ether anesthesia the skull was exposed by a midline longitudinal incision. A tipped Teflon cone was placed in the mid-coronal plane above the left anterior frontal area, 1 mm lateral to the midline. A weight (74 g) was dropped onto the cone (from a height of 15 cm), resulting in a focal injury. After trauma, animals received supporting oxygenation with 100% O2 for no longer than 2 min and were then returned to their cages. Sham-injured mice were anesthetized and their skin was incised, but they were not subjected to CHI.
In the first experiment mice were sacrificed 10, 30, or 120 min after sham-injury or CHI to assess levels of Ras=GTP and phospho=ERK. In the second set of experiments, the animals received FTS (5 mg/kg i.p.) or vehicle, 1 hr after CHI and sham-injured mice received the vehicle (n=4 per group). The mice were sacrificed 2 or 24 hrs after CHI, their brains were removed, and cortical tissue samples adjacent or contra-lateral to the site of injury were homogenized in homogenization buffer containing protease inhibitors and 0.5% Triton X100 as described (Haklai et al., 1998). Debris was removed by centrifugation and protein in the extract was determined with the aid of the Bio-Rad protein assay (Bio-Rad Laboratories, GmbH). Total Ras protein was determined by Western immunoblotting of 30 μg of protein with 1:2500 pan-Ras Ab (Oncogene Research Products, followed by 1:7500 peroxidase goat anti-mouse IgG (Haklai et al., 1998). For determination of GTP-bound Ras in protein samples (1 mg), Ras-GTP was pulled down by glutathione-S-transferase fused to the Ras-binding domain of Raf (GST-RBD) which binds Ras-GTP only. The GST-RBD-Ras-GTP was pulled down with glutathione-agarose beads, and Ras was then determined by immunoblotting with pan-Ras Ab as described above, followed by enhanced chemiluminescence (ECL; Amersham Pharmacia Biotech, Piscataway, N.J., U.S.A) (Paz et al., 2000). The bands were quantified by densitometry with Image Master VDS-CL (Amersham Biotech) using TINA 2.0 software (Ray Tests).

phospho-ERK = assay: ERK and phospho-ERK immunoblot in brains of CHI mice; type: in vivo, mouse; details: 2 hrs after CHI
Method: ERK and phospho-ERK were determined in 30 μg of brain extract proteins by immunoblotting, ECL, and densitometry (Paz et al., 2000). ERK immunoblots were incubated with 1:2000 rabbit anti-ERK1/2 Ab (Santa-Cruz) and then with 1:1000 peroxidase-goat anti rabbit IgG. Phospho-ERK immunoblots were incubated with 1:10,000 mouse anti-phospho-ERK Ab (Sigma) and then with 1:10,000 peroxidase-goat anti-mouse IgG.

[1] = system: primary hippocampal and cortical neuronal cultures; type: cell-based, rat
Method: Hippocampal and cortical neuronal cultures were prepared from embryonic rat brain essentially as described by Mattson (Mattson P M, Barger S W, Begley J M and Mark R J, Methods Cell Biol 1995; 46: 187-216). Briefly, Sprague Dawley embryos (17-18 days of gestation) were removed and their brains were dissected under the hood and kept in cold in sterile HEPES buffered Hank's balanced salt solution (HBBS) lacking Ca^2+ and Mg^2+, containing 10 μg/ml gentamicin sulfate. The brain regions under study were dissected and cells were dissociated by mild 0.25% trypsin, counted and the dissociation buffer was replaced by culture medium as detailed in Mattson. The cells were plated on poly-L-lysine ([…] solution) coated 24 well plates in Neurobasal medium (Gibco, Grand Island, N.Y. # 2110 3-049) prepared as detailed in Mattson. Hippocampal or cortical cells were plated at a density of 5×10^5 cells per well in 24 well plates and grown in 1 ml medium. Cultures were a kept in humidified 95%, 5% air/CO2 incubator at 37 C for 7 days and then used for the experiments.
Cells were treated with 25 μM FTS either 24 h prior to glutamate (200 μM) treatment or immediately after glutamate treatment. Assays were performed in triplicates. Twenty-four hours after the glutamate treatment, the cells were subjected to viability-cytotoxicity assay using the Live/Dead reagent kit (L-7013, Molecular Probes) essentially as described by the manufacturer. Fluorescent images for live cells (Syto 10, green) and of dead cells (DEAD red) were collected with appropriate filters within 1 h of staining. The number of live cells was estimated by counting the green-labeled cells in 3 fields in each well. The number of live cells in each of the triplicate experimental samples was averaged. These values were used to estimate the percent of cell death comparing the glutamate treated cells (with or without FTS) to untreated controls. The read labeled dead cells could not be used for accurate estimation of cell death under the conditions used because unsynchronized cell-death leads to disintegration of dead cells resulting in inaccurate estimation of the number of dead cells.
In the typical experiments, either hippocampal or cortical neuronal culture was exposed to 25 μM FTS 24 h prior to the addition of glutamate. […] The cells were then exposed to 200 μM glutamate for 30 min. The medium was replaced by glutamate-free medium and 24 h later the cells were subjected to the Live/Dead assay. […] This level of cell death was used as a reference point in all experiments.

[2] = cited from earlier work
[3] = 2 hrs after CHI, drug i.p. 1 hr after CHI, FTS 5 mg/kg, MK-801 0.5 mg/kg or 1 mg/kg, mean±SD
[4] = 25 μM FTS 24 h prior to 200 μM glutamate for 30 min, Live/Dead assay 24 h later

CC(C)=CCC/C(C)=C/CC/C(C)=C/CSc1ccccc1C(=O)O [FTS, farnesyl-thiosalicylic acid]
inhibition of the CHI-induced increase in Ras-GTP, left (contused) hemisphere (Ras-GTP; [3]): 81.7±10.0% and 75.2±6.8% and 82% and 82±10%
inhibition of the CHI-induced increase in Ras-GTP, right (contra-lateral) hemisphere (Ras-GTP; [3]): 70.4±12.0% and 67.2±7.1% and 70±12%
inhibition of Ras-GTP, range over both hemispheres (Ras-GTP; CHI mice, 2 hrs after CHI): 70-82%
effect on the total amount of Ras in the brain (Ras-GTP; FTS 5 mg/kg i.p. 1 hr after CHI): no effect
effect on Ras-GTP levels 24 hrs after CHI (Ras-GTP; FTS 5 mg/kg i.p. 1 hr after CHI, assessed 24 hrs after CHI): almost no effect
effect on amounts of total ERK (phospho-ERK): Neither inhibitor altered
inhibition (reduction) of phospho-ERK, right (contra-lateral) hemisphere (phospho-ERK; drug i.p. 1 hr after CHI, FTS 5 mg/kg, MK-801 0.5 mg/kg or 1 mg/kg): 73.2±8.3% and 73±8%
toxic effects of FTS alone on cultured hippocampal or cortical neurons [1]: no toxic effects
toxic effect of glutamate in cortical cultures [1, 4]: reduced the toxic effect of glutamate
toxic effect of glutamate in hippocampal cultures [1, 4]: markedly reduced
neuroprotective effect against the glutamate toxicity ([1]; hippocampal and cortical cultures, 25 μM FTS 24 h prior to 200 μM glutamate): 70%
percent cell death relative to glutamate treated cells (100% cell death) ([1]; hippocampal and cortical cultures, 25 μM FTS 24 h prior to 200 μM glutamate, FIG. 10): 30%
side effects at the 5 mg/kg dose in animal models of neoplasticity ([2]; 5 mg/kg FTS, previous studies (Jansen et al., 1999; Kloog et al., 1999)): without inadvertent side effects
toxicity and adverse side effects in animals ([2]; Kloog et al., 1999): not to be toxic and have no adverse side effects

Source: US20070054886A1, “Ras antagonists for treating neurodegenerative disorders” (RAMOT AT TEL AVIV UNIVERSITY, LTD., priority 2003, published 2007)
